{"source": "patent US20260207768A1", "about": "“NOVEL LINKER DRUGS COMPRISING PHOSPHOANTIGENS, NOVEL CONJUGATES AND THEIR USE IN THERAPY” (priority 2022, published 2026)", "key": {"NK-cells": {"test_system": "NK-cells", "conditions": "shown in WO2023/275025; cited from earlier work"}, "[1]": {"test_system": "Vdelta2 gammadelta T-cells", "assay": "Functional assay: Vdelta2 gammadelta T-cell activation (CD107a, IFNγ) after co-culture of PBMCs with pretreated Raji cells", "type": "cell-based, human", "set-up": "key to IFNγ production by Vdelta2 populations, EC50: †: incomplete curve saturation (no EC50 calculation possible); ††: low number of IFNγ-positive cells, no reliable EC50 calculation possible", "conditions": "Donor two; Raji cells pre-treated overnight, 6 hours coculture with PBMCs", "procedure": "Multiple synthesized linker drug compounds were conjugated to rituximab (anti-CD20) and resulting ADCs were tested for their ability to bind Raji cells and to activate Vdelta2 gammadelta T-cells after overnight incubation with CD20-positive Raji cells. The linker drug compounds that were conjugated to rituximab, and resulting ADCs, are within the list reflected in Table 1. The pretreated Raji cells were cocultured with peripheral blood mononuclear cells (PBMCs) and activation (IFNγ production) and degranulation (CD107a) of Vdelta2 gammadelta T-cells and NK-cells was determined using multicolor flow cytometry.\nFor stimulation with ADCs according to the invention, Raji cells were harvested, diluted to a concentration of 5×10^6 cells/mL and 50 μL (equivalent to 250,000 cells/well) of this cell suspension was seeded into a 96-well plate. […] The recovered PBMCs were harvested, counted and diluted to a concentration of 10×10^6 cells/mL in CGM, and 50 μL/well (equivalent to 0.5×10^6 cells/well) was added to the Raji cells. […]"}, "[2]": {"test_system": "CD20-positive Burkitt's Lymphoma human tumor cell line Raji", "assay": "Cellular binding to Raji cells (flow cytometry, MFI)", "conditions": "30 minutes at 4° C.", "procedure": "The CD20-positive Burkitt's Lymphoma human tumor cell line Raji (DSMZ, the German collection of Microorganisms and cell cultures GmbH) was used for in vitro experiments. Raji cells were cultured in complete growth medium (CGM): RPMI-1640 (Lonza) supplemented with 10% Heat-inactivated (HI) Fetal Bovine Serum (FBS) (Gibco) and 80 U/mL Penicillin-Streptomycin solution (Lonza). Raji cells were maintained at 37° C. in a humidified incubator containing 5% CO2 and sub-cultured twice a week. […] Fluorescence intensities were determined by flow cytometry using the NovoCyte (Agilent) and determined as the median fluorescence intensity (MFI). […] EC50 values were calculated in GraphPad Prism as the concentration in μg/mL that gives a response halfway between bottom and top of the curve. […]\nThese ADCs were tested for their ability to bind Raji cells (using a binding assay, as described in Example 5) and to activate Vdelta2 gammadelta T-cells after overnight incubation with CD20-positive Raji cells. The pretreated Raji cells were cocultured with peripheral blood mononuclear cells (PBMCs) and activation (IFNγ production) and degranulation (CD107a) of Vdelta2 gammadelta T-cells and NK-cells was determined using multicolor flow cytometry, as described for the Functional assay in Example 5."}}, "data": [{"substance": "Rituximab: anti-CD20 antibody rituximab [reference compound]", "values": [{"measurement": "Activation of NK-cells (in words)", "setting": "NK-cells", "value": "induced activation of NK-cells"}, {"measurement": "CD107a production by Vdelta2 populations, EC50", "setting": "[1]", "value": 0.094, "unit": "µg/mL"}, {"measurement": "IFNγ production by Vdelta2 populations, EC50", "setting": "[1]", "value": "††"}, {"measurement": "EC50 binding to Raji cells", "setting": "[2]", "value": 3.30, "unit": "µg/mL"}]}]}
